These results are taken from PubChem BioAssay (NCI).

Test systems include UO-31 renal; CCRF-CEM leukemia; ACHN renal; HCT-15 colon; HCT-116 colon; A498 renal; EKVX NSCLC; HCC-2998 colon; UACC-62 melanoma; SK-MEL-2 melanoma; SF-539 CNS; SK-MEL-5 melanoma; NCI-H226 lung; TK-10 renal; A549 NSCLC; SF-268 CNS; SN12C renal; M14 melanoma; MCF7 breast.
Common to all, as to test: NCI-60 cell line screen, 48 h

Structures are written as SMILES.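 Step 1: Grow cells in 96-well plates. Step 2: Expose to compound for 48 hours at 5 concentrations. Step 3: Interpolate endpoints linearly; if unreached, use highest concentration. TGI: total growth inhibition.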

With `O=c1ccn(/C=C/C(O)C(O)CO)c(=O)[nH]1` (stereo unspecified), the TGI in the experiment with UO-31 renal, in the experiment with CCRF-CEM leukemia, in the experiment with ACHN renal, in the experiment on HCT-15 colon, in the experiment on HCT-116 colon and in the experiment on A498 renal was above 100 µM in each case. Moreover, the TGI in the experiment on EKVX NSCLC, in the experiment with HCC-2998 colon, with UACC-62 melanoma, in the experiment on SK-MEL-2 melanoma, in the experiment on SF-539 CNS and in the experiment on SK-MEL-5 melanoma was above 100 µM in each case. Besides, the TGI in the experiment with NCI-H226 lung, in the experiment on TK-10 renal, in the experiment on A549 NSCLC, in the experiment on SF-268 CNS and in the experiment on SN12C renal was above 100 µM in each case.

Turning to `N#CNC1=NC(N)C(c2nc3ccccc3[nH]2)=C(CCCC(=O)Nc2cccc([N+](=O)[O-])c2)N1` (stereo unspecified), the TGI in the experiment with UO-31 renal, in the experiment with CCRF-CEM leukemia, with ACHN renal, with HCT-15 colon, in the experiment with M14 melanoma and in the experiment with EKVX NSCLC was above 100 µM throughout. Besides, the TGI with HCC-2998 colon, in the experiment on UACC-62 melanoma, in the experiment on SK-MEL-2 melanoma, with SF-539 CNS, in the experiment on SK-MEL-5 melanoma and with NCI-H226 lung was above 100 µM each time. Also, the TGI with TK-10 renal, with A549 NSCLC, with SF-268 CNS and in the experiment with SN12C renal was above 100 µM in each case.

As to `NC(CCCCNCc1ccccc1O)C(=O)O` (stereo unspecified), the TGI in the experiment on UO-31 renal, in the experiment on CCRF-CEM leukemia, in the experiment with ACHN renal, with HCT-15 colon, with HCT-116 colon and in the experiment on M14 melanoma was above 100 µM in each case. Besides, the TGI with A498 renal, in the experiment with EKVX NSCLC, in the experiment with HCC-2998 colon, in the experiment with UACC-62 melanoma, in the experiment with SK-MEL-2 melanoma and with SF-539 CNS was above 100 µM each time. In addition, the TGI in the experiment on SK-MEL-5 melanoma, in the experiment on NCI-H226 lung, with TK-10 renal, with A549 NSCLC, in the experiment with SF-268 CNS and with SN12C renal was above 100 µM in each case.

Take `Oc1cccnc1/C=N/OCc1ccccc1`: the TGI with UO-31 renal, in the experiment with CCRF-CEM leukemia, with ACHN renal, in the experiment on HCT-15 colon, in the experiment with HCT-116 colon and in the experiment with M14 melanoma was above 100 µM each time. The TGI in the experiment on A498 renal, in the experiment with EKVX NSCLC, with HCC-2998 colon, in the experiment on UACC-62 melanoma, in the experiment with SK-MEL-2 melanoma and in the experiment on SF-539 CNS was above 100 µM in each case. Besides, the TGI with SK-MEL-5 melanoma, with NCI-H226 lung, in the experiment with TK-10 renal, with A549 NSCLC, in the experiment with SF-268 CNS and in the experiment on SN12C renal was above 100 µM in each case.

As for `Cc1nnc(N/N=C(/C(=O)C(C#N)c2ccc(Cl)cc2)C(C#N)c2ccc(Cl)cc2)n1N` (stereo unspecified), the TGI is 34.1 µM with UO-31 renal; above 100 µM in the experiment on CCRF-CEM leukemia; 30.8 µM with ACHN renal; 49.4 µM with HCT-15 colon; 38.7 µM with M14 melanoma; 34.2 µM in the experiment on HCC-2998 colon. In addition, the TGI with SK-MEL-2 melanoma was 34.5 µM; in the experiment with SK-MEL-5 melanoma it was 30.9 µM; with NCI-H226 lung, 33.5 µM; with TK-10 renal it was 34.7 µM; in the experiment on A549 NSCLC, 43.9 µM; in the experiment with SF-268 CNS, 57.2 µM. In the experiment with SN12C renal, this compound yielded a TGI of 34.9 µM.

In the case of `N#Cc1c(-c2ccccc2)cc(-c2ccccc2)n(C2OCC(O)C(O)C2O)c1=S` (stereo unspecified), the TGI with UO-31 renal came to 54 µM; in the experiment with CCRF-CEM leukemia, 93.1 µM; in the experiment with ACHN renal, 38.1 µM; in the experiment on HCT-15 colon, 60.6 µM; with HCT-116 colon, 28.4 µM; with MCF7 breast it was 41.7 µM. In addition, the TGI is 53.3 µM in the experiment with M14 melanoma; 64.2 µM in the experiment on A498 renal; 90.2 µM in the experiment with EKVX NSCLC; 16.1 µM with UACC-62 melanoma; 62.3 µM in the experiment with SK-MEL-2 melanoma; 41.9 µM in the experiment on SF-539 CNS. Also, the TGI with SK-MEL-5 melanoma was 27.9 µM; in the experiment on NCI-H226 lung, 35.9 µM; with TK-10 renal, 58.2 µM; in the experiment on A549 NSCLC, 57.4 µM; in the experiment on SF-268 CNS it was 80 µM.

In the case of `Cn1nc(-c2ccccc2)c(C(=O)/C=C/c2ccc(Cl)cc2)c(N2CCOCC2)c1=O`, the TGI in the experiment on UO-31 renal is 21.7 µM; in the experiment on CCRF-CEM leukemia it was 7.1 µM; with ACHN renal, 17 µM; in the experiment on HCT-15 colon, 13.4 µM; in the experiment with HCT-116 colon, 3.96 µM; with M14 melanoma it was 15.7 µM. Besides, the TGI in the experiment with A498 renal worked out at 15.8 µM; in the experiment on EKVX NSCLC it was 27.1 µM; with UACC-62 melanoma, 10.7 µM; in the experiment on SF-539 CNS it was 7.67 µM; in the experiment on SK-MEL-5 melanoma, 17.2 µM; with TK-10 renal, 25.8 µM. Further, the TGI in the experiment on A549 NSCLC was 23.1 µM; in the experiment on SF-268 CNS it was 11.8 µM; in the experiment on SN12C renal, 29.2 µM.

As to `Nc1nc2c(ncn2CCCC(c2ccccc2)P(=O)(O)O)c(=O)[nH]1` (stereo unspecified), the TGI with UO-31 renal, with CCRF-CEM leukemia, with ACHN renal, in the experiment on HCT-15 colon, in the experiment on HCT-116 colon and in the experiment with M14 melanoma was above 100 µM in each case. The TGI in the experiment on EKVX NSCLC, in the experiment on HCC-2998 colon, in the experiment with UACC-62 melanoma, in the experiment on SK-MEL-2 melanoma, with SF-539 CNS and in the experiment on SK-MEL-5 melanoma was above 100 µM in each case. The TGI in the experiment on TK-10 renal, in the experiment with A549 NSCLC, in the experiment with SF-268 CNS and in the experiment on SN12C renal was above 100 µM each time.

As for `CCOP(=O)(OCC)C(Cc1ccc(Cl)cc1)NS(=O)(=O)c1ccc(C)cc1` (stereo unspecified), the TGI with CCRF-CEM leukemia, with ACHN renal, in the experiment with HCT-15 colon, in the experiment with MCF7 breast, in the experiment on M14 melanoma and in the experiment with A498 renal was above 100 µM each time. Further, the TGI in the experiment with EKVX NSCLC, in the experiment on HCC-2998 colon, in the experiment on UACC-62 melanoma, with SK-MEL-2 melanoma, in the experiment on SF-539 CNS and in the experiment on SK-MEL-5 melanoma was above 100 µM throughout. For the same compound, the TGI in the experiment on TK-10 renal, in the experiment with A549 NSCLC, in the experiment with SF-268 CNS and with SN12C renal was above 100 µM throughout.
